Literature values in patent US7081474B2, “Drugs to improve synaptic transmission” (priority 1994, dated 2006).
Read-outs that look alike come from different tables or passages of the source. No end group written: not given here.

What was measured:
[1] = system: slices of rat hippocampus; details: cited from earlier work
[2] = system: experimental animals; details: cited from earlier work
[3] = system: LTP in hippocampus (CA1 field, dentate gyrus); details: cited from earlier work
[4] = system: rats; details: infused into lateral ventricles; cited from earlier work

mast-cell-degranulating peptide: K+ channel blocker (IKCNCKRHVIKPHICRKICGKN; ends and bridges not checked; cysteine pairing not given here; UniProt P01499 28-49, looked up)
effect on synaptic responses [1]: long lasting potentiation | deleterious effects ([2]; in vivo): seizures and convulsions

O=C(O)CN(CCN(CC(=O)O)CC(=O)O)CC(=O)O [EDTA]
induction of LTP ([3]; intracellular injection): blocked

NC(CCCP(=O)(O)O)C(=O)O (stereo not shown) [APV, 2-amino-5-phosphonopentanoate]
effect on LTP induction ([3]; CA1 field and dentate gyrus): prevent LTP from taking place | effect on LTP already established [3]: no effect | learning of the task [4]: prevented from learning the task

N[C@@]1(C(=O)O)CC[C@@H](C(=O)O)C1 [1S,3R-ACPD, aminocyclopentane-1S,3R-decarboxylate]
effect on synaptic responses ([1]; brief application in vitro): long lasting potentiation | deleterious effects ([2]; administered directly into the brain): seizures and convulsions

CC(=O)N[C@@H](CC(C)C)C(=O)N[C@@H](CC(C)C)C(=O)N[C@H](C=O)CCCNC(=N)N [leupeptin]
LTP on electrical stimulation of the hippocampus ([3]; infusion into lateral ventricles of rats): no longer produces LTP

CC[N+](CC)(CC)CC [tetraethylammonium]
effect on synaptic responses [1]: long lasting potentiation
